Test system: participants with T1D
Assay: Randomized crossover clinical trial (NCT04201496): CGM glycemic outcomes with 5 mg daily empagliflozin adjunctive to AID (Control-IQ, CIQ) or PLGS (Basal-IQ, BIQ)
Type: in vivo, human
Conditions: for Difference (95% CI): daytime glucose % Time in range of 70 to 180 mg/dL: adjusted for pre-randomization HbA1c
Protocol: FIG. 2 presents a study analysis relative to baseline, control IQ (CIQ) (e.g., AID), and basal IQ (BIQ) (e.g., PLGS) implementation, according to investigation that is demonstrable of one or more embodiments herein. Therein, an experimental arm (G1, G2) providing an initial daily dose of 5 mg empagliflozin (EMPA) is depicted against a control arm (G3, G4) without such dosing (NOEMPA). Relative characteristics of the analysis are provided below.
Study Design: A single-center, randomized, controlled, unblinded, crossover clinical trial (NCT04201496) compared four parallel groups, two groups in the experimental arm (EMPA) with 5 mg daily empagliflozin as adjunctive therapy to PLGS or AID, and two groups in the control arm (NOEMPA) with no drug and with a PLGS system (Basal-IQ, Tandem Diabetes Care) or AID system (Control-IQ, Tandem Diabetes Care). The groups within each arm differed from one another in the order of the randomly assigned crossover technological intervention, relative to PLGS being followed by AID or AID being followed by PLGS, respectively (FIG. 4). The study protocol was approved by the University of Virginia Institutional Review Board (IRB). An investigational device exemption (IDE), including an investigational new drug (IND) application for empagliflozin, was approved by the FDA. Safety aspects were overseen by an external data and safety monitoring board (DSMB). Participants: Major inclusion criteria were T1D treated with insulin for at least one year, use of continuous subcutaneous insulin infusion therapy for at least six months, age 18-65 yrs., no use of glucose lowering agents other than insulin, and Hb1Ac<9% (75 mmol/mol). Randomization: A (1:1:1:1) randomization assigned participants to either Group 1, AID-EMPA (4 weeks) followed by PLGS-EMPA (2 weeks), Group 2, PLGS-EMPA (2 weeks) followed by AID-EMPA (4 weeks), Group 3, AID-NOEMPA (4 weeks) followed by PLGS-NOEMPA (2 weeks), and Group 4, PLGS-NOEMPA (2 weeks) followed by AID-NOEMPA (4 weeks). Procedures: After confirmation of eligibility, participants underwent study equipment and medication training (experimental arm), or only study equipment training (control arm). Study equipment consisted of Dexcom G6® CGM (Dexcom Inc., San Diego, CA), Contour® Next blood glucose (Ascensia Diabetes Care, Basel, Switzerland) and Precision Xtra® blood ketone meters (Abbott, Alameda, CA) with their respective test strips; infusion sets, and the use of the t:slim X2™ insulin pump with Basal-IQ or Control-IQ technologies (Tandem Diabetes Care, San Diego, CA), according to randomization. […] Participants in the experimental arm were asked to record two days of baseline ketone values before initiating the use of the study drug. Thereafter, participants were directed to use the study CGM with EMPA for 1-2 weeks. A tolerance to the medication was assessed prior to the starting of the next study phase, including adherence to the protocol, ketone testing 2-4 times per day with monitored values not greater than 0.6 mmol/L on at least two successive occasions (the first testing upon waking in a fasted state), no adverse events relating to perineal infection or symptomatic postural hypotension, and no evidence of significant hypoglycemia <54 mg/dL, or any other listed adverse effects of the medication. Participants in the control arm were directed to use the study CGM for 1-2 weeks. Sample Size: The total sample size was projected to be 40 participants, assuming 1) 1:1:1:1 randomization; 2) 90% power and type 1 error a=0.01, further reinforcing the feasibility of hierarchical analyses. The projected recruitment sample was n=50, to accommodate up to 20% attrition rate without sacrificing statistical power. Analytical methods: For the primary analysis, TIR during the day in the 4-week AID period was compared between the two EMPA groups versus the two NOEMPA groups using a linear mixed-effects regression model while adjusting for pre-randomization HbAlc and age. […]

[1] = EMPA minus NOEMPA on same insulin system, adjusted for HbA1c
[2] = daytime (7:00-23:00), head prints CIQ-EMPA vs. BIQ-NOEMPA
[3] = daytime (7:00-23:00), CIQ-EMPA vs. BIQ-NOEMPA, BIQ-EMPA vs. CIQ-NOEMPA
[4] = daytime (7:00-23:00), CIQ-EMPA vs. CIQ-NOEMPA, BIQ-EMPA vs. BIQ-NOEMPA
[5] = daytime (7:00-23:00), n = 16, mean ± SD
[6] = daytime (7:00-23:00), n = 16, median (IQR)
[7] = overall, head prints CIQ-EMPA vs. BIQ-NOEMPA

For `OC[C@H]1O[C@@H](c2ccc(Cl)c(Cc3ccc(O[C@H]4CCOC4)cc3)c2)[C@H](O)[C@@H](O)[C@@H]1O` [CIQ-EMPA, empagliflozin], the “24/7 HBGI - median (IQR)” value (24/7, n = 17) was 2.7(2-4.4), the “24/7 LBGI - median (IQR)” value (24/7, n = 17) was 0.5(0.4-0.6) and the “24/7 glucose level <70 mg/dL (<3.9 mmol/L) - median % time (IQR)” value (24/7, n = 17) was 1.1(0.5-1.5) %. The “24/7 glucose level <70 mg/dL (<3.9 mmol/L) - median % time (IQR)” value (24/7, n = 17, listed as AID-EMPA) was 1.1(0.5-1.5) %, the “24/7 Mean glucose level -” value (24/7, n = 17, mean ± SD) was 137 ± 19 mg/dL and the “24/7 Mean glucose level -” value (24/7, n = 17, mean ± SD, listed as AID-EMPA) was 137 mg/dL. The “daytime TIR mean adjusted difference, amounting to hours per day” value (AID-EMPA vs AID-NOEMPA, daytime 7:00 to 23:00 h) was 1.6 hours per day, the “Difference (95% CI): 24/7 HBGI” value [1] was −2.5(−5.3 to 0.2) and the “Difference (95% CI): 24/7 LBGI” value [1] was 0.06(−0.4 to 0.5). For the same compound, the “Difference (95% CI): 24/7 Mean glucose level” value [1] was −17.3(−35.4 to 0.8) mg/dL, the “Difference (95% CI): 24/7 glucose level <70 mg/dL % time” value [1] was −1.1(−3.2 to 0.9) percentage points and the “Difference (95% CI): Daytime CGM CV” value [1] was −3.3(−6.1 to −0.5) %. For the same compound, the “Difference (95% CI): Daytime CGM SD” value [1] was −9.3(−17.8 to −0.93) mg/dL, the “Difference (95% CI): 24/7 glucose level <70 mg/dL % time” value (EMPA minus NOEMPA on same insulin system, adjusted for HbA1c, listed as AID-EMPA) was −1.1 percentage points and the “Difference (95% CI): daytime glucose % Time in range of 70 to 180 mg/dL” value (EMPA minus NOEMPA on same insulin system) was 9.9(0.6 to 19.1) percentage points. For the same compound, the “Difference (95% CI): daytime glucose % Time in range of 70 to 180 mg/dL” value (EMPA minus NOEMPA on same insulin system, listed as AID-EMPA) was “+9.9 percentage points”, the “Primary: daytime glucose % Time in range of 70 to 180 mg/dL (3.9-10.0 mmol/L)” value (daytime 7:00 to 23:00 h, n = 17, mean ± SD) was 81 ± 10% and the “Primary: daytime glucose % Time in range of 70 to 180 mg/dL (3.9-10.0 mmol/L)” value (daytime 7:00 to 23:00 h, n = 17, mean ± SD, listed as AID-EMPA) was 81+10%. For the same compound, the “Difference (95% CI): % CGM time 70-140 mg/dL (<3.9-7.8 mmol/L)” value [2] was −1.4 percentage points, the “Difference (95% CI): % CGM time <60 mg/dL (<3.3 mmol/L)” value (from here on “Difference (95% CI) … (<3.3 mmol/L)”) [2] was −0.5 percentage points and the “Difference (95% CI): % CGM time >180 mg/dL (>10.0 mmol/L)” value (“Difference (95% CI) … (>10.0 mmol/L)” below) [2] was −0.8 percentage points. The “Difference (95% CI): % CGM time >250 mg/dL (>13.9 mmol/L)” value (from here on “Difference (95% CI) … (>13.9 mmol/L)”) [2] was −1.6 percentage points, the “Difference (95% CI): % CGM time >300 mg/dL (>16.7 mmol/L)” value (shortened to “Difference (95% CI) … (>16.7 mmol/L)”) [2] was −0.9 percentage points and the “Difference (95% CI): CGM HBGI” value [2] was −6.3. The “Difference (95% CI): CGM LBGI” value [2] was −0.3, the “Difference (95% CI): Mean CGM glucose” value [2] was 0.2 mg/dL and the “Difference (95% CI): % CGM time <70 mg/dL (<3.9 mmol/L)” value (daytime (7:00-23:00), head prints CIQ-EMPA vs. BIQ-NOEMPA, listed as AID-EMPA) was −1 percentage points. The “Difference (95% CI): % CGM time 70-140 mg/dL (<3.9-7.8 mmol/L)” value [3] was 16.2 percentage points, the “Difference (95% CI) … (<3.3 mmol/L)” value [3] was −0.6 percentage points and the “Difference (95% CI): % CGM time <70 mg/dL (<3.9 mmol/L)” value [3] was −0.7 percentage points. For the same compound, the “Difference (95% CI) … (>10.0 mmol/L)” value [3] was −17.6 percentage points, the “Difference (95% CI) … (>13.9 mmol/L)” value [3] was −9.2 percentage points and the “Difference (95% CI) … (>16.7 mmol/L)” value [3] was −3.6 percentage points. The “Difference (95% CI): CGM HBGI” value [3] was −4.4, the “Difference (95% CI): CGM LBGI” value [3] was 0 and the “Difference (95% CI): CGM SD” value [3] was -15.5 mg/dL. The “Difference (95% CI): Mean CGM glucose” value [3] was -23.6 mg/dL, the “Difference (95% CI): % CGM time <50 mg/dL (<2.8 mmol/L)” value [4] was −0.2 percentage points and the “Difference (95% CI) … (<3.3 mmol/L)” value [4] was −0.7 percentage points. For the same compound, the “Difference (95% CI) … (>10.0 mmol/L)” value [4] was −10.3 percentage points, the “Difference (95% CI) … (>13.9 mmol/L)” value [4] was −3.8 percentage points and the “Difference (95% CI) … (>16.7 mmol/L)” value [4] was −1.3 percentage points. For the same compound, the “Difference (95% CI): CGM CV (%)” value [4] was −3.3%, the “Difference (95% CI): CGM HBGI” value [4] was −2.2 and the “Difference (95% CI): CGM LBGI” value [4] was 0. For the same compound, the “Difference (95% CI): CGM SD” value [4] was -9.3 mg/dL, the “Difference (95% CI): Mean CGM glucose” value [4] was -14.6 mg/dL and the “% CGM time 70-140 mg/dL (3.9-7.8 mmol/L)” value [5] was 56.7 ± 13.4%. The “% CGM time 70-180 mg/dL (3.9-10.0 mmol/L)” value [5] was 80.6 ± 10.5%, the “CGM CV (%)” value [5] was 30.4 ± 3.5% and the “CGM SD” value [5] was 42.6 ± 9.7 mg/dL. The “Mean CGM glucose” value [5] was 139 ± 19 mg/dL, the “% CGM time <50 mg/dL (<2.8 mmol/L)” value [6] was 0(0-0.1) % and the “% CGM time <60 mg/dL (<3.3 mmol/L)” value [6] was 0.4(0-0.5) %. For the same compound, the “% CGM time <70 mg/dL (<3.9 mmol/L)” value [6] was 1.2(0.6-1.7) %, the “% CGM time >180 mg/dL (>10.0 mmol/L)” value [6] was 15.8(6.2-26) % and the “% CGM time >250 mg/dL (>13.9 mmol/L)” value [6] was 1.2(0.4-3.7) %. The “% CGM time >300 mg/dL (>16.7 mmol/L)” value [6] was 0(0-0.6) %, the “CGM HBGI” value [6] was 3.4(1.9-5.5) and the “CGM LBGI” value [6] was 0.5(0.4-0.6). The “Daytime CGM CV - %” value (daytime, n = 17, mean ± SD) was 30.4 ± 3.5%, the “Daytime CGM SD -” value (daytime, n = 17, mean ± SD) was 42.6 ± 9.8 mg/dL and the “Difference: CGM HBGI” value [7] was −1.1. The “Difference: CGM LBGI” value [7] was −0.3 and the “Difference: % CGM time <70 mg/dL (<3.9 mmol/L)” value (overall, head prints CIQ-EMPA vs. BIQ-NOEMPA, listed as AID-EMPA) was −1.2 percentage points.
